Test results from the kinase profiling compilation of Christmann-Franck et al. (2016).
Values belong to the molecule of their own block, whether it stands above or below them.

How the values were obtained:
Experiment in all cases: KINOMEscan competition binding
Settings in all cases: compound 10.0 µM
[1] = biological target: GRK7 (human) (UniProt Q8WTQ7)
[2] = test system: PIK3CA (human), P42336 [C420R]
[3] = biological target: MAP2K2 (human) (UniProt P36507)
[4] = biological target: TEK (human) (UniProt Q02763)
[5] = biological target: HUNK (human) (UniProt P57058)
[6] = biological target: CDKL3 (human) (UniProt Q8IVW4)
[7] = biological target: BMPR1A (human) (UniProt P36894)
[8] = biological target: MAPK4 (human) (UniProt P31152)
[9] = biological target: RPS6KA5 KD2 (human) (UniProt O75582)
[10] = biological target: ADCK4 (human) (UniProt Q96D53)
[11] = biological target: RIPK4 (human) (UniProt P57078)
[12] = biological target: MAP4K1 (human) (UniProt Q92918)
[13] = biological target: PRKACA (human) (UniProt P17612)
[14] = biological target: ALK (human) (UniProt Q9UM73)
[15] = biological target: EPHB6 (human) (UniProt O15197)
[16] = biological target: FGFR2 (human) (UniProt P21802)
[17] = biological target: MAP2K4 (human) (UniProt P45985)
[18] = biological target: MAP4K5 (human) (UniProt Q9Y4K4)
[19] = biological target: MAP3K1 (human) (UniProt Q13233)
[20] = biological target: SGK110 (human) (UniProt P0C264)
[21] = biological target: PKN2 (human) (UniProt Q16513)
[22] = biological target: MKNK2 (human) (UniProt Q9HBH9)
[23] = test system: MET (human), P08581 [Y1235D]
[24] = biological target: MAP4K4 (human) (UniProt O95819)
[25] = biological target: PAK1 (human) (UniProt Q13153)
[26] = biological target: INSRR (human) (UniProt P14616)
[27] = biological target: RPS6KA6 KD1 (human) (UniProt Q9UK32)
[28] = biological target: MAPK3 (human) (UniProt P27361)
[29] = test system: FLT3 (human), P36888 [D835Y]
[30] = biological target: CLK3 (human) (UniProt P49761)
[31] = biological target: ROS1 (human) (UniProt P08922)
[32] = biological target: PAK7 (human) (UniProt Q9P286)
[33] = biological target: MAP3K12 (human) (UniProt Q12852)
[34] = biological target: MAPKAPK2 (human) (UniProt P49137)
[35] = biological target: DAPK1 (human) (UniProt P53355)
[36] = biological target: FYN (human) (UniProt P06241)
[37] = biological target: CAMK2D (human) (UniProt Q13557)
[38] = biological target: CAMK1G (human) (UniProt Q96NX5)
[39] = biological target: MYO3A (human) (UniProt Q8NEV4)
[40] = biological target: MERTK (human) (UniProt Q12866)
[41] = biological target: TLK1 (human) (UniProt Q9UKI8)

Sequence of TEK (human) (Q02763 whole entry, looked up): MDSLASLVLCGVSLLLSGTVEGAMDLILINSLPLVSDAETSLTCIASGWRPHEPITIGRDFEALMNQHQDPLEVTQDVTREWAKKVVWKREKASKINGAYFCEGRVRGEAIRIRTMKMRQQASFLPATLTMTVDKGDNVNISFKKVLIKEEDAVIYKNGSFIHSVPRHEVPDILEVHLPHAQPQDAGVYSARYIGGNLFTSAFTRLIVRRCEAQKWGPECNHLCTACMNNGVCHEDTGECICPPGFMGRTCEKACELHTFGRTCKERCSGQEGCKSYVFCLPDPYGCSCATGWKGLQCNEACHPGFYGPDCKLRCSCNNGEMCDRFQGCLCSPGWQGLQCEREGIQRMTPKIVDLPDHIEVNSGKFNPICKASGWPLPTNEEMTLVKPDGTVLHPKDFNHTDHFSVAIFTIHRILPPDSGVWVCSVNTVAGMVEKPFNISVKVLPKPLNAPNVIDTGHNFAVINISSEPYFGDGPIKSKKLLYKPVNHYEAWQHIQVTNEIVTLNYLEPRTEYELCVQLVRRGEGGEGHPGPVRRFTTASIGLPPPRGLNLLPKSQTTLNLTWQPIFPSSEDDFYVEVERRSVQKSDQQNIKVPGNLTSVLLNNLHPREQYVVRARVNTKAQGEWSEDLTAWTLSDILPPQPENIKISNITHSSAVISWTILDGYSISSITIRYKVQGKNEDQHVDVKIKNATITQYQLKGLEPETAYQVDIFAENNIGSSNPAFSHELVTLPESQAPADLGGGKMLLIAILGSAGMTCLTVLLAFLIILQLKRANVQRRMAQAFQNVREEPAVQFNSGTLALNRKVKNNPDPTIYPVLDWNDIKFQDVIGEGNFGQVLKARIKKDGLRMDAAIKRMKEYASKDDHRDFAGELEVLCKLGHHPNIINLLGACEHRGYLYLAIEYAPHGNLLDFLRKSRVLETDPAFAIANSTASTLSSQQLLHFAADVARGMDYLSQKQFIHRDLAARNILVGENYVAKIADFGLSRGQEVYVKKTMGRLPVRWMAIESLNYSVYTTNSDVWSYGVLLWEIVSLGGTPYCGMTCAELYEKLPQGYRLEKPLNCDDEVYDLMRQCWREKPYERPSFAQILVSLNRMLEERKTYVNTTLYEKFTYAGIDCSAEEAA
Sequence of FYN (human) (P06241 whole entry, looked up): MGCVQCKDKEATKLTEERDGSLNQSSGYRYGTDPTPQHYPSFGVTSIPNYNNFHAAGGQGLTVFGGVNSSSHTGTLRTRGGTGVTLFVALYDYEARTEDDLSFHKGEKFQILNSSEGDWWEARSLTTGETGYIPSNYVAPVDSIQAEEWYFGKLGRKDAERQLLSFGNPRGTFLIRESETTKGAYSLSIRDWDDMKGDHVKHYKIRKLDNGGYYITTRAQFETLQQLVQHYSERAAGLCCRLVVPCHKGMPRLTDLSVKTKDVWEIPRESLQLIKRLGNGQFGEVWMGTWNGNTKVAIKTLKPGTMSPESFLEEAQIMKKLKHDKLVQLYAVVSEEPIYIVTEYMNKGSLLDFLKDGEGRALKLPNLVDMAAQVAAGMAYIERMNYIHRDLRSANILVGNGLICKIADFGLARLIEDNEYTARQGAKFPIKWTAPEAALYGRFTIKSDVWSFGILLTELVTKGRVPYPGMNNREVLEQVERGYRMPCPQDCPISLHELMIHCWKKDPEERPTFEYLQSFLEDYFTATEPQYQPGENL
Sequence of MAP3K12 (human) (Q12852 whole entry, looked up): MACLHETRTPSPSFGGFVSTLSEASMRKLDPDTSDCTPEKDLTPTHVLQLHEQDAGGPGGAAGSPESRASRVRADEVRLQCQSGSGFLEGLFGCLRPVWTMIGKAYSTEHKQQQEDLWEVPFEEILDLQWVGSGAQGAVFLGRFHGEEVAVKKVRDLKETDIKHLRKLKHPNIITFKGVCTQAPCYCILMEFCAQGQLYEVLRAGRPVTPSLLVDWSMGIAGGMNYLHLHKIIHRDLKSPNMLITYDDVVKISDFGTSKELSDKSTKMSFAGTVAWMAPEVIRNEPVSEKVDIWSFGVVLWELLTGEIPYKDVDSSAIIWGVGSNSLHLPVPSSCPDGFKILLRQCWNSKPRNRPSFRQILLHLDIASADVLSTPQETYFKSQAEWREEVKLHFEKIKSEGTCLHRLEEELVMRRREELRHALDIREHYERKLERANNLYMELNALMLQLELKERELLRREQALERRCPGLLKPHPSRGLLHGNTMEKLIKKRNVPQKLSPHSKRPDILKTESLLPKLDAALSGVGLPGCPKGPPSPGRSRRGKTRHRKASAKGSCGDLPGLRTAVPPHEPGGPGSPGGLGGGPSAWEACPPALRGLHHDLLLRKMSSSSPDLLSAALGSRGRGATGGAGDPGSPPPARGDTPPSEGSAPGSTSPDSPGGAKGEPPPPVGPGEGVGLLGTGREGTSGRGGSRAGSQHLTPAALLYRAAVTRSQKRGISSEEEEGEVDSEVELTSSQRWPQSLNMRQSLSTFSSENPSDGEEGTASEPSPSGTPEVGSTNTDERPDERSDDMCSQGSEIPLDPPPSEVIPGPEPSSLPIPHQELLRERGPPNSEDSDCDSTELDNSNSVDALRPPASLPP
Sequence of MAP4K1 (human) (Q92918 whole entry, looked up): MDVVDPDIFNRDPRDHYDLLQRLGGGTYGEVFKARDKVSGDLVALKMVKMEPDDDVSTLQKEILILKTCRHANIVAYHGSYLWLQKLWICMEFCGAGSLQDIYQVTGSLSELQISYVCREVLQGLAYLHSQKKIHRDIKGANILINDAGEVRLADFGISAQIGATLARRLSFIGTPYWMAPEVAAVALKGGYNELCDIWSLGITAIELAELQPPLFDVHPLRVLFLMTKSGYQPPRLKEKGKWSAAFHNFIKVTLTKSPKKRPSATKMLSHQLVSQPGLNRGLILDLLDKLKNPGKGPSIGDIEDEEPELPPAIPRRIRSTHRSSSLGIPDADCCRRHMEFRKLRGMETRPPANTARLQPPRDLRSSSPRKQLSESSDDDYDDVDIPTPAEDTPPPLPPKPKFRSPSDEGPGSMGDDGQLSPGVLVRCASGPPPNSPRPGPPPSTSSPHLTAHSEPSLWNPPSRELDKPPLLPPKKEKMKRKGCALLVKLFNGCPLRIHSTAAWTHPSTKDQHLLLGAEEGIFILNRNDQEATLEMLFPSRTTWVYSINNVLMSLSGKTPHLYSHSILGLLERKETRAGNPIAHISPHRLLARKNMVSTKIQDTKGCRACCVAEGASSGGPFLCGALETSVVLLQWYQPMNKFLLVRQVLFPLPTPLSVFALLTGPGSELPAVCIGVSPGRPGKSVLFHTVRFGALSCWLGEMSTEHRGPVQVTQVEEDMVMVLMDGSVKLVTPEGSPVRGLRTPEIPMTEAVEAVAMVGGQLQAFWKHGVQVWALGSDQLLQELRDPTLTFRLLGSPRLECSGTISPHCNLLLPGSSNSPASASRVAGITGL
Sequence of FGFR2 (human) (P21802 whole entry, looked up): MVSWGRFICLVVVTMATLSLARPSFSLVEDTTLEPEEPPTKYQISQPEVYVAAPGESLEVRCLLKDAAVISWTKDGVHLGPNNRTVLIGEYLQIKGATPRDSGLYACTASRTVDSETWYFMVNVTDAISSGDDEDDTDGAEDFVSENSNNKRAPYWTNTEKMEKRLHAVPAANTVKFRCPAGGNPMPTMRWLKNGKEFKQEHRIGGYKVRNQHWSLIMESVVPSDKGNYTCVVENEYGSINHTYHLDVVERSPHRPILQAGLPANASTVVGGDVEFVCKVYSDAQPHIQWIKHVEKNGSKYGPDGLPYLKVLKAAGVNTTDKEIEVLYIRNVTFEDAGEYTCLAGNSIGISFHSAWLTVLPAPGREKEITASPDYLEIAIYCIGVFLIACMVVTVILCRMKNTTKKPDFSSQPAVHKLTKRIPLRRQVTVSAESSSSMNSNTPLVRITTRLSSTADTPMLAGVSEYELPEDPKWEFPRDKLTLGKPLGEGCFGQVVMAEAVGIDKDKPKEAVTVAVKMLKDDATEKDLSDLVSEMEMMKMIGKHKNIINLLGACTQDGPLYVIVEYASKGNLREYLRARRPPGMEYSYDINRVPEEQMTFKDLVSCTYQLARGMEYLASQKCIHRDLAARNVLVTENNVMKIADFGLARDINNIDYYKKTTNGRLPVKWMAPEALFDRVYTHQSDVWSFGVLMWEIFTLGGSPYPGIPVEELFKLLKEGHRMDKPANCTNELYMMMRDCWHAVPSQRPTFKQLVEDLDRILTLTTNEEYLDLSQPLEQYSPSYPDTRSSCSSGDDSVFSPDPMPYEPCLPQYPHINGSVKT
Sequence of RPS6KA6 KD1 (human) (Q9UK32 whole entry, looked up): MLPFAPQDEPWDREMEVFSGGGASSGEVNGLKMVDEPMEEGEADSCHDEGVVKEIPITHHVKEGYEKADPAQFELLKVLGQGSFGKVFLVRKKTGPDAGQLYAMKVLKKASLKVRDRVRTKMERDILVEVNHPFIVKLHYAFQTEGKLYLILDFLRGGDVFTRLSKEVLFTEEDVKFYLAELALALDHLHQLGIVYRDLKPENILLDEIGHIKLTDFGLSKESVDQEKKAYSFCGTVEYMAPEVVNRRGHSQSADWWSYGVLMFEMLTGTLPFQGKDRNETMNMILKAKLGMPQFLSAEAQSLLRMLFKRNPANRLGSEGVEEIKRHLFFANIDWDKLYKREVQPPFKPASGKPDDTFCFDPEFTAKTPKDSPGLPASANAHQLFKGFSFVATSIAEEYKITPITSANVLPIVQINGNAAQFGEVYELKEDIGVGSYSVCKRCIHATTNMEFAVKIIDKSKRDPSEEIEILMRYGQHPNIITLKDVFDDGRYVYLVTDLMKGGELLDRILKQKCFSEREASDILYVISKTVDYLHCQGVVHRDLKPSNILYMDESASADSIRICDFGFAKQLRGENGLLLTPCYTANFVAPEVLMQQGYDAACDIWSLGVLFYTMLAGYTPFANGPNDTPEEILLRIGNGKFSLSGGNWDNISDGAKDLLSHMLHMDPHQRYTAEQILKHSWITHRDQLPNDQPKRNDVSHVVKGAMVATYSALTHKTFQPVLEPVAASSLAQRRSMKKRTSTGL

kinase still bound, per cent of control [1]: 58%
kinase still bound, per cent of control [2]: 100%
kinase still bound, per cent of control [3]: 26%
kinase still bound, per cent of control [4]: 78%
kinase still bound, per cent of control [5]: 79%
kinase still bound, per cent of control [6]: 82%
kinase still bound, per cent of control [7]: 66%
kinase still bound, per cent of control [8]: 100%
kinase still bound, per cent of control [9]: 75%
kinase still bound, per cent of control [10]: 57%
kinase still bound, per cent of control [11]: 40%
kinase still bound, per cent of control [12]: 18%
kinase still bound, per cent of control [13]: 100%
kinase still bound, per cent of control [14]: 44%
kinase still bound, per cent of control [15]: 0.3%
kinase still bound, per cent of control [16]: 15%
kinase still bound, per cent of control [17]: 67%
kinase still bound, per cent of control [18]: 9.2%
kinase still bound, per cent of control [19]: 100%
kinase still bound, per cent of control [20]: 100%
kinase still bound, per cent of control [21]: 29%
kinase still bound, per cent of control [22]: 28%
kinase still bound, per cent of control [23]: 100%
kinase still bound, per cent of control [24]: 8%
kinase still bound, per cent of control [25]: 68%
kinase still bound, per cent of control [26]: 47%
kinase still bound, per cent of control [27]: 51%
kinase still bound, per cent of control [28]: 100%
kinase still bound, per cent of control [29]: 0%
kinase still bound, per cent of control [30]: 81%
kinase still bound, per cent of control [31]: 100%
kinase still bound, per cent of control [32]: 17%
kinase still bound, per cent of control [33]: 19%
kinase still bound, per cent of control [34]: 100%
kinase still bound, per cent of control [35]: 3.6%
kinase still bound, per cent of control [36]: 1.6%
kinase still bound, per cent of control [37]: 2.1%
kinase still bound, per cent of control [38]: 42%
kinase still bound, per cent of control [39]: 60%
kinase still bound, per cent of control [40]: 0.4%
kinase still bound, per cent of control [41]: 47%
SMILES: O=C1Nc2cc(Br)ccc2/C1=C1/Nc2ccccc2/C1=N\O

kinase still bound, per cent of control [1]: 100%
kinase still bound, per cent of control [2]: 95%
kinase still bound, per cent of control [3]: 100%
kinase still bound, per cent of control [4]: 78%
kinase still bound, per cent of control [5]: 81%
kinase still bound, per cent of control [6]: 76%
kinase still bound, per cent of control [7]: 78%
kinase still bound, per cent of control [8]: 100%
kinase still bound, per cent of control [9]: 100%
kinase still bound, per cent of control [10]: 100%
kinase still bound, per cent of control [11]: 100%
kinase still bound, per cent of control [12]: 98%
kinase still bound, per cent of control [13]: 96%
kinase still bound, per cent of control [14]: 100%
kinase still bound, per cent of control [15]: 100%
kinase still bound, per cent of control [16]: 81%
kinase still bound, per cent of control [17]: 79%
kinase still bound, per cent of control [18]: 100%
kinase still bound, per cent of control [19]: 100%
kinase still bound, per cent of control [20]: 83%
kinase still bound, per cent of control [21]: 78%
kinase still bound, per cent of control [22]: 100%
kinase still bound, per cent of control [23]: 96%
kinase still bound, per cent of control [24]: 92%
kinase still bound, per cent of control [25]: 94%
kinase still bound, per cent of control [26]: 93%
kinase still bound, per cent of control [27]: 100%
kinase still bound, per cent of control [28]: 100%
kinase still bound, per cent of control [29]: 86%
kinase still bound, per cent of control [31]: 100%
kinase still bound, per cent of control [32]: 96%
kinase still bound, per cent of control [33]: 80%
kinase still bound, per cent of control [34]: 94%
kinase still bound, per cent of control [35]: 99%
kinase still bound, per cent of control [36]: 87%
kinase still bound, per cent of control [37]: 100%
kinase still bound, per cent of control [38]: 100%
kinase still bound, per cent of control [39]: 100%
kinase still bound, per cent of control [40]: 100%
kinase still bound, per cent of control [41]: 96%
SMILES: COc1ccc(CNC(=O)Nc2ncc([N+](=O)[O-])s2)cc1

kinase still bound, per cent of control [1]: 91%
kinase still bound, per cent of control [2]: 100%
kinase still bound, per cent of control [3]: 100%
kinase still bound, per cent of control [4]: 100%
kinase still bound, per cent of control [5]: 100%
kinase still bound, per cent of control [6]: 52%
kinase still bound, per cent of control [7]: 100%
kinase still bound, per cent of control [8]: 100%
kinase still bound, per cent of control [9]: 100%
kinase still bound, per cent of control [10]: 100%
kinase still bound, per cent of control [11]: 100%
kinase still bound, per cent of control [12]: 100%
kinase still bound, per cent of control [13]: 100%
kinase still bound, per cent of control [14]: 100%
kinase still bound, per cent of control [15]: 100%
kinase still bound, per cent of control [16]: 98%
kinase still bound, per cent of control [17]: 70%
kinase still bound, per cent of control [18]: 100%
kinase still bound, per cent of control [19]: 100%
kinase still bound, per cent of control [20]: 100%
kinase still bound, per cent of control [22]: 82%
kinase still bound, per cent of control [23]: 100%
kinase still bound, per cent of control [25]: 100%
kinase still bound, per cent of control [26]: 100%
kinase still bound, per cent of control [27]: 89%
kinase still bound, per cent of control [28]: 100%
kinase still bound, per cent of control [29]: 46%
kinase still bound, per cent of control [30]: 97%
kinase still bound, per cent of control [31]: 100%
kinase still bound, per cent of control [32]: 100%
kinase still bound, per cent of control [33]: 100%
kinase still bound, per cent of control [34]: 100%
kinase still bound, per cent of control [35]: 84%
kinase still bound, per cent of control [36]: 100%
kinase still bound, per cent of control [37]: 100%
kinase still bound, per cent of control [38]: 100%
kinase still bound, per cent of control [39]: 100%
kinase still bound, per cent of control [40]: 100%
kinase still bound, per cent of control [41]: 75%
SMILES: Cc1cnc(-c2cnc(NCCNc3ccc(C#N)cn3)nc2-c2ccc(Cl)cc2Cl)[nH]1
